Assay results: paper PMC7408607, “A Multiple N-Glucosylated Peptide Epitope Efficiently Detecting Antibodies in Multiple Sclerosis” (Brain Sciences, 2020)
Read-outs that look alike come from different tables or passages of the source. Residues, ends and D or L forms follow the SMILES beside them. *: point of attachment. NH(β-D-Glc) = OC[C@H]1O[C@@H](N*)[C@H](O)[C@@H](O)[C@@H]1O

Test system: anti-CSF114(Glc) IgG antibodies from MS patients' serum
Test: Competitive (inhibition) ELISA on plates coated with CSF114(Glc)
Assay type: binding, human
Details: for Log1/IC50 ± Std Error: Table S4, shortened peptides versus CSF114(Glc), one representative positive MS serum
Experimental: Washing steps were executed with an automatic Hydroflex microplate washer (Tecan Italia, Milano, Italy). After five washes with washing buffer containing 0.9% NaCl and 0.05% Tween 20, nonspecific binding sites were blocked with 100 μL per well fetal calf serum (FCS) buffer solution (10% in washing buffer) at room temperature for 60 min.
Antibody affinity was measured following the inhibition methods reported elsewhere. Semi-saturating sera dilution was calculated in preliminary titration curves (absorbance 0.7). Six different concentrations of each synthetic antigenic peptide probe were used as inhibitors. Then, sera samples at the selected dilution were incubated in parallel with increasing concentrations of the synthetic shortened peptide sequences (range 1 × 10^−10 to 1 × 10^−4) for 60 min at room temperature. All inhibition experiments were performed in duplicate or triplicate for each single MS patient’s serum positive to CSF114(Glc) separately. All experiments were repeated at least twice on two different working days.
After three washes, uninhibited antibodies were identified by adding 100 µL/well of alkaline phosphatase-conjugated anti-human immunoglobulin G (IgG, Sigma-Aldrich, Milano, Italy) diluted 1:8000 in washing buffer containing 10% FCS. The microplates were then incubated 3 h at room temperature and, after three washes, 100 µL of substrate solution consisting of 1 mg/mL p-nitrophenyl phosphate (Sigma-Aldrich, Milano, Italy) in 10% diethanolamine buffer (pH 9.8) were added. After approximately 30 min, the reaction was stopped with 1M NaOH solution (50 µL/well), and the absorbance was read in a multichannel ELISA reader (Tecan Sunrise, Männedorf, Switzerland) at 405 nm. The selected ELISA microplates, coating conditions, reagent dilutions, buffers, and incubation times were previously tested. The relationship between peptide concentrations and the absorbance values was represented graphically in absorbance inhibition percentage, and half-maximal response concentration values (IC50) were calculated.

[1] = Table S5, tri- and pentapeptides 9-22 and CSF114(Glc), representative MS serum (Figure 3)
[2] = Table S5, tri- and pentapeptides 9-22 and CSF114(Glc), representative MS serum (Figure 3), CI 95% in brackets, read-out: IC50(M)[CI95%]
[3] = serum MS1 (Figure S2A), one of three MS positive sera tested in parallel, read-out: IC50
[4] = serum MS3 (Figure S2C), read-out: IC50
[5] = shortened CSF114(Glc) series (Figure 2, Table S4), one representative positive MS patient's serum, inhibitor 1 × 10^−10 to 1 × 10^−4, absorbance 405 nm, non-linear regression least squares fit, read-out: IC50

SMILES	Log1/IC50 ± StdError [1]	further results
CC(=O)N[C@@H](CCC(=O)O)C(=O)N[C@@H](CCCNC(=N)N)C(=O)N[C@@H](CC(=O)N[C@@H]1O[C@H](CO)[C@@H](O)[C@H](O)[C@H]1O)C(=O)NCC(=O)N[C@@H](Cc1c[nH]cn1)C(N)=O [Ac-ERN(Glc)GH-NH2(20), Ac-ERN(Glc)GH-NH2] (Ac-ERD(NH(β-D-Glc))GH-NH2)	5.95 ± 0.112	–
CC(=O)N[C@@H](CCC(=O)O)C(=O)N[C@@H](CCCNC(=N)N)C(=O)N[C@@H](CC(=O)N[C@@H]1O[C@H](CO)[C@@H](O)[C@H](O)[C@H]1O)C(=O)NCC(=O)N[C@@H](CO)C(N)=O [Ac-ERN(Glc)GS-NH2(16), Ac-ERN(Glc)GS-NH2] (Ac-ERD(NH(β-D-Glc))GS-NH2)	5.677 ± 0.1444	–
CC(=O)N[C@@H](CCC(=O)O)C(=O)N[C@@H](CCCNC(=N)N)C(=O)N[C@@H](CC(=O)N[C@@H]1O[C@H](CO)[C@@H](O)[C@H](O)[C@H]1O)C(=O)NCC(=O)N[C@H](C(N)=O)[C@@H](C)O [Ac-ERN(Glc)GT-NH2(17), Ac-ERN(Glc)GT-NH2] (Ac-ERD(NH(β-D-Glc))GT-NH2)	6.23 ± 0.14	–
CC(=O)N[C@@H](CCC(=O)O)C(=O)N[C@@H](CCCNC(=N)N)C(=O)N[C@@H](CC(=O)N[C@@H]1O[C@H](CO)[C@@H](O)[C@H](O)[C@H]1O)C(=O)N[C@@H](CCCCN)C(=O)N[C@@H](Cc1c[nH]cn1)C(N)=O [Ac-ERN(Glc)KH-NH2(21), Ac-ERN(Glc)KH-NH2] (Ac-ERD(NH(β-D-Glc))KH-NH2)	5.98 ± 0.1482	–
CC(=O)N[C@@H](CCC(=O)O)C(=O)N[C@@H](CCCNC(=N)N)C(=O)N[C@@H](CC(=O)N[C@@H]1O[C@H](CO)[C@@H](O)[C@H](O)[C@H]1O)C(=O)N[C@@H](CCCCN)C(=O)N[C@@H](CO)C(N)=O [Ac-ERN(Glc)KS-NH2(18), Ac-ERN(Glc)KS-NH2] (Ac-ERD(NH(β-D-Glc))KS-NH2)	5.59 ± 0.19	–
CC(=O)N[C@@H](CCCCN)C(=O)NCC(=O)N[C@@H](CC(=O)N[C@@H]1O[C@H](CO)[C@@H](O)[C@H](O)[C@H]1O)C(=O)N[C@@H](C)C(=O)N[C@H](C(N)=O)[C@@H](C)O [Ac-KGN(Glc)AT-NH2(22), Ac-KGN(Glc)AT-NH2] (Ac-KGD(NH(β-D-Glc))AT-NH2)	6.22 ± 0.07	–
CC(=O)N[C@@H](CC(=O)N[C@@H]1O[C@H](CO)[C@@H](O)[C@H](O)[C@H]1O)C(=O)N[C@@H](C)C(=O)N[C@H](C(N)=O)[C@@H](C)O [Ac-N(Glc)AT-NH2(15), Ac-N(Glc)AT-NH2]	5.005 ± 0.05558	IC50 [2]: 7e-06 M
CC(=O)N[C@@H](CC(=O)N[C@@H]1O[C@H](CO)[C@@H](O)[C@H](O)[C@H]1O)C(=O)NCC(=O)N[C@@H](Cc1c[nH]cn1)C(N)=O [Ac-N(Glc)GH-NH2(13), Ac-N(Glc)GH-NH2]	5.226 ± 0.0433	IC50 [2]: 6.94e-06 M
CC(=O)N[C@@H](CC(=O)N[C@@H]1O[C@H](CO)[C@@H](O)[C@H](O)[C@H]1O)C(=O)NCC(=O)N[C@@H](CO)C(N)=O [Ac-N(Glc)GS-NH2(9), Ac-N(Glc)GS-NH2]	5.137 ± 0.063	–
CC(=O)N[C@@H](CC(=O)N[C@@H]1O[C@H](CO)[C@@H](O)[C@H](O)[C@H]1O)C(=O)NCC(=O)N[C@H](C(N)=O)[C@@H](C)O [Ac-N(Glc)GT-NH2(10), Ac-N(Glc)GT-NH2]	5.129 ± 0.1170	–
CC(=O)N[C@@H](CC(=O)N[C@@H]1O[C@H](CO)[C@@H](O)[C@H](O)[C@H]1O)C(=O)N[C@@H](CCCCN)C(=O)N[C@@H](Cc1c[nH]cn1)C(N)=O [Ac-N(Glc)KH-NH2(14), Ac-N(Glc)KH-NH2]	5.160 ± 0.01636	–
CC(=O)N[C@@H](CC(=O)N[C@@H]1O[C@H](CO)[C@@H](O)[C@H](O)[C@H]1O)C(=O)N[C@@H](CCCCN)C(=O)N[C@@H](CO)C(N)=O [Ac-N(Glc)KS-NH2(11), Ac-N(Glc)KS-NH2]	5.942 ± 0.1911	–
CC(=O)N[C@@H](CC(=O)N[C@@H]1O[C@H](CO)[C@@H](O)[C@H](O)[C@H]1O)C(=O)N[C@@H](CCCCN)C(=O)N[C@H](C(N)=O)[C@@H](C)O [Ac-N(Glc)KT-NH2(12), Ac-N(Glc)KT-NH2]	6.010 ± 0.06024	–
CSCC[C@H](NC(=O)[C@H](Cc1c[nH]c2ccccc12)NC(=O)CNC(=O)[C@H](Cc1ccc(O)cc1)NC(=O)[C@@H]1CCCN1C(=O)[C@H](C)NC(=O)[C@H](CC(C)C)NC(=O)[C@H](Cc1ccccc1)NC(=O)[C@@H](NC(=O)[C@H](CO)NC(=O)[C@H](Cc1c[nH]cn1)NC(=O)CNC(=O)[C@H](CC(=O)N[C@@H]1O[C@H](CO)[C@@H](O)[C@H](O)[C@H]1O)NC(=O)[C@H](CCCNC(=N)N)NC(=O)[C@H](CCC(=O)O)NC(=O)[C@@H](NC(=O)[C@H](CCCNC(=N)N)NC(=O)[C@@H]1CCCN1C(=O)[C@@H](N)[C@@H](C)O)C(C)C)C(C)C)C(=O)N[C@H](C(=O)N[C@@H](CCCCN)C(=O)O)C(C)C [CSF114(Glc) (1), CSF114(Glc), reference compound]	6.46 ± 0.083	Log1/IC50 ± Std Error: 6.14 ± 0.083; IC50 [3]: 5.2e-07 M; IC50 [4]: 5.12e-09 M; IC50 [5]: 9e-09 M
CC(=O)N[C@@H](CC(=O)N[C@@H]1O[C@H](CO)[C@@H](O)[C@H](O)[C@H]1O)C(=O)NCCCOCCOCCOCCCNC(=O)CCC(=O)NCCCC[C@H](NC(=O)CCC(=O)NCCCOCCOCCOCCCNC(=O)[C@H](CC(=O)N[C@@H]1O[C@H](CO)[C@@H](O)[C@H](O)[C@H]1O)NC(C)=O)C(=O)NCCCC[C@H](NC(=O)[C@H](CCCCNC(=O)CCC(=O)NCCCOCCOCCOCCCNC(=O)[C@H](CC(=O)N[C@@H]1O[C@H](CO)[C@@H](O)[C@H](O)[C@H]1O)NC(C)=O)NC(=O)CCC(=O)NCCCOCCOCCOCCCNC(=O)[C@H](CC(=O)N[C@@H]1O[C@H](CO)[C@@H](O)[C@H](O)[C@H]1O)NC(C)=O)C(=O)NCCC(=O)O [N-Glc MEP (24)]	–	IC50 [3]: 2.15e-08 M; IC50 [4]: 2.15e-08 M
CC(=O)N[C@H](C(=O)N[C@@H](CCC(=O)O)C(=O)N[C@@H](CCCNC(=N)N)C(=O)N[C@@H](CC(=O)N[C@@H]1O[C@H](CO)[C@@H](O)[C@H](O)[C@H]1O)C(=O)NCC(=O)N[C@@H](Cc1c[nH]cn1)C(=O)N[C@@H](CO)C(=O)N[C@H](C(N)=O)C(C)C)C(C)C [[Asn7(Glc)]CSF114(4‒11) (6), [Asn^7(Glc)] CSF114(4–11)] (Ac-VERD(NH(β-D-Glc))GHSV-NH2)	–	Log1/IC50 ± Std Error: 6.2 ± 0.29
CC(=O)N[C@@H](CCC(=O)O)C(=O)N[C@@H](CCCNC(=N)N)C(=O)N[C@@H](CC(=O)N[C@@H]1O[C@H](CO)[C@@H](O)[C@H](O)[C@H]1O)C(=O)NCC(=O)N[C@@H](Cc1c[nH]cn1)C(=O)N[C@@H](CO)C(N)=O [[Asn7(Glc)]CSF114(5‒10) (7), [Asn^7(Glc)] CSF114(5–10)] (Ac-ERD(NH(β-D-Glc))GHS-NH2)	–	Log1/IC50 ± Std Error: 5.4 ± 0.10; IC50 [5]: 3.5e-06 M
CC(=O)N[C@@H](CCCNC(=N)N)C(=O)N[C@@H](CC(=O)N[C@@H]1O[C@H](CO)[C@@H](O)[C@H](O)[C@H]1O)C(=O)NCC(=O)N[C@@H](Cc1c[nH]cn1)C(N)=O [[Asn7(Glc)]CSF114(6‒9) (8), [Asn^7(Glc)] CSF114(6–9)] (Ac-RD(NH(β-D-Glc))GH-NH2)	–	Log1/IC50 ± Std Error: 5.7 ± 0.25
